According to ChEMBL document CHEMBL1158742, “Production of 8-demethylgeldanamycin and 4,5-epoxy-8-demethylgeldanamycin from a recombinant strain of Streptomyces hygroscopicus” (J Nat Prod, 2005):

The compounds below were run on SK-BR-3 (assay: Cytotoxicity against human SKBR3 cells after 72 hrs by celltiter-Glo assay). Conditions: SK-BR-3, 72 h.
Format: functional, cell-based
Work on `COC1=C2C[C@@H](C)C[C@H](OC)[C@H](O)[C@@H](C)/C=C/[C@H](OC(N)=O)[C@@H](OC)[C@@H]3O[C@@H]3/C=C(\C)C(=O)NC(=CC1=O)C2=O` yielded an IC50 of 280 nM.
Work on `COC1=C2C[C@@H](C)C[C@H](OC)[C@H](O)[C@@H](C)/C=C/[C@H](OC(N)=O)[C@@H](OC)/C=C\C=C(/C)C(=O)NC(=CC1=O)C2=O` yielded an IC50 of 481 nM.
`C=CCNC1=C2C[C@@H](C)C[C@H](OC)[C@H](O)[C@@H](C)/C=C(\C)[C@H](OC(N)=O)[C@@H](OC)/C=C\C=C(/C)C(=O)NC(=CC1=O)C2=O` [TANESPIMYCIN] gave an IC50 of 27 nM.
